From article PMC12073177 (Molecules, 2025)

Assays:
[1] = MTT cell viability assay in RAW 264.7 cells; format: cell-based, murine; conditions: mouse, RAW 264.7 macrophage cells, RAW 264.7, MTT; for viability at 24 h: tested concentrations up to 40 μM
Experimental: (§1) Absorbance was measured at 570 nm using a microplate reader.
(§2) All experiments were performed in triplicate.

[2] = molecular target: T1, tau protein (tau-BiFC SH-SY5Y cell line) (Homo sapiens, UniProt P10636); assay: Tau-BiFC SH-SY5Y anti-tau aggregation assay; format: cell-based; conditions: 10 μM, 24 h, compared to the control group
T1 construct: split fluorescent protein fragments for BiFC (complementing N- and C-terminal halves); expressed in transfected cells; host or cells: SH-SY5Y
T1 sequence (P10636 1-441 isoform P10636-8): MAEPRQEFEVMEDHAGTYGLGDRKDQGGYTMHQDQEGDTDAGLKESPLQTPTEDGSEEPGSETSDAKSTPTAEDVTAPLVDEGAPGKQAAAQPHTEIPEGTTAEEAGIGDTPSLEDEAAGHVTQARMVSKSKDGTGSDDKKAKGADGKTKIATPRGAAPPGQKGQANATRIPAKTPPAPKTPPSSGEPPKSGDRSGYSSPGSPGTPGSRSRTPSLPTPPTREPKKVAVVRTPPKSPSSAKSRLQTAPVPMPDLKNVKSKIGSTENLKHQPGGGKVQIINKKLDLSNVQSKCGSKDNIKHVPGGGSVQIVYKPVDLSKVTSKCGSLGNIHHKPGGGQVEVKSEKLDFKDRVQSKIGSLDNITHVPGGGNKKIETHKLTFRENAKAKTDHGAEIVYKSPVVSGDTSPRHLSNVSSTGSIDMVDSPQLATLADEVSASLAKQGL
Experimental: Cells were maintained at 37 °C in a humidified incubator with 5% CO2.

[3] = test system: NLRP3; assay: NLRP3 ELISA in LPS-stimulated RAW 264.7 cells; format: cell-based, murine; conditions: for NLRP3 inhibition (result in words): 40 µM; for inhibition at 40 µM: Mus musculus, RAW264.7, read-out: NLRP3 inhibition rate
Experimental: For evaluating the NLRP3 inhibitory activity, the highest concentration of 40 µM was selected, as this concentration had previously been confirmed to maintain cell viability (Section 2.4.1).
To assess NLRP3 inflammasome activation, RAW 264.7 macrophages were seeded at a density of 5 × 10^5 cells/well in 96-well plates. […] The levels of NLRP3 in the culture supernatant were quantified using a commercially available ELISA kit (Lsbio, WA, USA) according to the manufacturer’s protocol. Absorbance was measured at 450 nm, and NLRP3 concentrations were determined using a standard curve, expressed in ng/mL. To ensure statistical accuracy, all experiments were performed in duplicate.

[4] = test system: nitric oxide (NO) production in LPS-stimulated RAW 264.7 cells; assay: Nitric oxide production in LPS-stimulated RAW 264.7 cells (Griess reagent); format: cell-based, murine; conditions: for effect on NO production (result in words): 5, 10, 20 and 40 µM, LPS-stimulated RAW 264.7; for reduction of NO production: 40 µM, relative to the LPS-treated group, LPS 24 h
Experimental: NO levels in the culture supernatants were quantified using the Griess reagent assay, and absorbance was measured at 540 nm.
RAW 264.7 cells were maintained in Dulbecco’s Modified Eagle Medium (DMEM, Sigma-Aldrich, St. Louis, MO, USA) supplemented with 10% heat-inactivated fetal bovine serum (FBS, Invitrogen, Burlington, ON, Canada) and 1% (w/v) antibiotic-antimycotic solution (Invitrogen, Grand Island, NY, USA). The cells were cultured in a humidified incubator at 37 °C under 95% air and 5% CO2 conditions.
The production of NO was quantified by measuring nitrite levels in the culture supernatants using the Griess reagent (1% sulfanilamide, 0.1% N-(1-naphthyl)-ethylenediamine dihydrochloride, and 5% phosphoric acid). […] The cells were then stimulated with 0.5 μg/mL lipopolysaccharide (LPS, Sigma-Aldrich, CA, USA) for 24 h in a total volume of 200 μL. After incubation, 100 μL of culture supernatant was mixed with an equal volume of Griess reagent and incubated at room temperature for 5 min. Sodium nitrite was used as a standard for calibration, and nitrite concentration was determined by measuring absorbance at 540 nm. All experiments were conducted in triplicate.

[5] = molecular target: T2, β-secretase (BACE-1) (Homo sapiens, UniProt P56817); assay: BACE-1 FRET-based inhibition assay; format: biochemical; conditions: 60 min at room temperature, mean ± SD, ND = no detectable inhibitory activity
T2 construct: purchased Thermo Fisher Scientific, San Diego, CA, USA
T2 sequence (P56817 46-501): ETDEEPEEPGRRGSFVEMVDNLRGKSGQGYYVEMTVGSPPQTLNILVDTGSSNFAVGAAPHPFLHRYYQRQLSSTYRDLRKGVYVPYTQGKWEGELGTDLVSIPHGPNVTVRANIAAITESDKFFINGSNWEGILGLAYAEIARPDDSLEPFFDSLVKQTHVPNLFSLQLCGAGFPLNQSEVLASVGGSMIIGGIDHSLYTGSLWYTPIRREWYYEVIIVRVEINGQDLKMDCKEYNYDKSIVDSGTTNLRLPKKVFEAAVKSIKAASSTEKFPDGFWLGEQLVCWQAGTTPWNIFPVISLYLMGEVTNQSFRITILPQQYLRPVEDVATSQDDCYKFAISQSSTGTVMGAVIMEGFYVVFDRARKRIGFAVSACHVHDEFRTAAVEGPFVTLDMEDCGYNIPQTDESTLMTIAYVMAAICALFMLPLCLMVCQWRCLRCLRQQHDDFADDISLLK
Experimental: The reaction was initiated by adding 10 µL of a 3× BACE-1 enzyme solution. Plates were incubated at room temperature for 60 min in the dark. After incubation, 10 µL of 2.5 mM sodium acetate was added to terminate the reaction. Fluorescence was measured using a multimode plate reader (Multiskan™ GO, Thermo Scientific, Waltham, MA, USA) with an excitation wavelength of 545 nm and an emission wavelength of 585 nm. The IC50 values were determined by plotting relative fluorescence units per hour (RFU/h) against the logarithmic inhibitor concentrations. All experiments were performed in triplicate.

[6] = DPPH radical scavenging assay (antioxidant activity); format: biochemical; conditions: in methanol, 30 min, absorbance at 540 nm
Experimental: Absorbance was measured at 540 nm. All experiments were conducted in triplicate.

[7] = test system: RAW 264.7 cells; assay: MTT cell viability assay in RAW 264.7 cells; format: cell-based, murine; conditions: RAW 264.7, MTT, 24 h, 5-40 μM
Experimental: as §1, §2

| IC50 [6] [µM] | IC50 [5] [µM] | Compound | viability at 24 h, 40 µM [1] [%] | anti-tau aggregation effect (BiFC fluorescence, result in words) [2] | NLRP3 inhibition (result in words) [3] | effect on NO production (result in words) [4] | BACE-1 IC50 [5] | viability at 24 h [1] [%] | inhibition at 40 µM [3] [%] | reduction of NO production [4] | cytotoxicity (result in words) [7] |
| --- | --- | --- | --- | --- | --- | --- | --- | --- | --- | --- | --- |
| 598 | – | CN(C)NC(=O)CC[C@H](N)C(=O)O [RA-DMe, N^5-(dimethylamino)glutamine] | > 80 | did not exhibit significant anti-tau aggregation activity | no significant NLRP3-inhibitory effects | moderate NO-reducing effect | no detectable BACE-1 inhibitory activity (ND) | – | – | – | – |
| 5.49 ± 0.63 | 25 ± 5.72 | COc1ccc(NNC(=O)CC[C@H](N)C(=O)O)cc1 [RA-4OMe, N^5-((4-methoxyphenyl)amino)glutamine] | – | moderate inhibitory effects | – | concentration-dependent reduction in NO levels | – | > 100 | ≥ 20 | 25~35% | – |
| 9.7 ± 0.32 | – | N[C@@H](CCC(=O)NNc1ccc2ccccc2n1)C(=O)O [RA-2Q, N^5-(quinolin-2-ylamino)glutamine] | – | significant reductions in tau aggregation | – | did not significantly suppress NO production | no detectable BACE-1 inhibitory activity (ND) | – | ≥ 20 | – | no significant reduction in cell survival |
| 2.81 ± 0.03 | 7.97 ± 2.46 | COc1ccccc1NNC(=O)CC[C@H](N)C(=O)O [RA-2OMe, N^5-((2-methoxyphenyl)amino)glutamine] | – | moderate inhibitory effects | – | concentration-dependent reduction in NO levels | – | > 100 | ≥ 20 | 25~35% | – |
| 31.7 ± 14.6 | 0.33 ± 0.79 | NC(CCC(=O)NNc1cccc(C(F)(F)F)c1)C(=O)O (stereo not drawn) [RA-3CF3, N^5-((3-(triflouromethyl)phenyl)amino)glutamine] | – | did not show significant anti-tau effects | – | concentration-dependent reduction in NO levels | – | > 100 | 10 to 15 | – | – |
| 1.77 ± 0.12 | 0.66 ± 1.05 | NC(CCC(=O)NNc1cccc2ccccc12)C(=O)O (stereo not drawn) [RA-NAP] | > 80 | significant reductions in tau aggregation | – | moderate NO-reducing effect | – | – | 10 to 15 | – | – |
| 2580 ± 359 | – | CC(C)NNC(=O)CC[C@H](N)C(=O)O [RA-IPr, N^5-(Isopropylamino)glutamine] | – | did not exhibit significant anti-tau aggregation activity | no significant NLRP3-inhibitory effects | did not significantly suppress NO production | no detectable BACE-1 inhibitory activity (ND) | – | – | – | no significant reduction in cell survival |
| 3.77 ± 0.09 | 9.89 ± 13.6 | NC(CCC(=O)NNc1ccc(OC(F)(F)F)cc1)C(=O)O (stereo not drawn) [RA-4OCF3, N^5-((4-(triflouromethoxy)phenyl)amino)glutamine] | – | – | – | concentration-dependent reduction in NO levels | – | > 100 | ≥ 20 | – | – |
| 7.4 ± 3.54 | 0.32 ± 0.08 | N[C@@H](CCC(=O)NNc1ccccn1)C(=O)O [RA-PYD, N^5-(pyridin-2-ylamino)glutamine] | – | significant reductions in tau aggregation | – | did not significantly suppress NO production | – | – | ≥ 20 | – | no significant reduction in cell survival |
| 3 ± 0.03 | 11.6 ± 14 | NC(CCC(=O)NNc1ccccc1C(F)(F)F)C(=O)O (stereo not drawn) [RA-2CF3, N^5-((2-(triflouromethyl)phenyl)amino)glutamine] | – | – | – | moderate NO-reducing effect | – | > 100 | ≥ 20 | – | – |
